{
  "source": "patent US12319752B2",
  "about": "“Heparin-binding cationic peptide self-assembling peptide amphiphiles useful against drug-resistant bacteria” (priority 2016, dated 2025)",
  "key": {"[1]": {"test_system": "MDR E. coli", "assay": "Viable colony count assay (bactericidal effect, 4 h)", "format": "cell-based, multidrug-resistant E. coli (MDR E. coli, ATCC #BAA-2471)", "description": "The bactericidal effects of the peptides were examined using a viable colony count assay as well as the live/dead staining assay. For the viable colony count assay, bacteria were treated with peptides for 4 h and the resulting viable bacterial density of each sample was expressed by log10[CFU/mL]. For the Gram-positive bacteria tested, the decrease in bacterial density was dependent on the concentration of the ACA-PA (FIG. 8A). […] As for Gram-negative E. coli and MDR E. coli bacteria (FIG. 8B), the ACA nanorods, wherein the PA were added at a concentration above their CMC, had potent bactericidal effects. For example, the ACA nanorods at concentrations over 60 μM reduced the colony forming units of Gram-negative bacteria by about a five log unit reduction after 4 h compared with the untreated negative control sample.\nIn addition, ACA-PA were mixed with heparin at various weight ratios (1:1, 1:2, and 1:3 ACA-PA to heparin ratios) to block the Cardin motif groups on the PA. The ACA-PA concentration used to treat bacteria (MRSA and MDR E. coli) was a constant 80 μM and only varied in the concentration of heparin.\nThe viable count assay was performed to quantify the bactericidal activity of each peptide. Stock solutions of peptides were diluted in 3% TSB media to concentrations ranging from 20 μM to 100 μM immediately before experiments. Heparin-ACA-PA were also prepared by mixing the ACA-PA stock solution with heparin (sodium salt from porcine intestinal mucosa, Sigma, St. Louis, MO) to 1:1, 1:2 and 1:3 weight ratios in water, and a final concentration of ACA-PA in the heparin-ACA-PA at each heparin weight ratio was adjusted to 80 μM for each experiment. The bacteria (10^6 CFU/mL) were incubated with peptides at 37° C. for 4 h. After incubation, serial dilutions of samples were plated on TSB agar and then incubated at 37° C. overnight. The colonies from each spot were manually counted, and the CFU number for each sample was determined. Experiments were conducted in triplicate and results were expressed as the log 10 values of the CFU number in each sample. Data were expressed by stand error of the mean (±S.E.M.) and N=3, *p<0.05 compared with control samples and #p<0.05 compared with bacteria treated with 40 μM of ACA-PA."}, "[2]": {"test_system": "MDR E. coli", "assay": "Live/dead bacterial viability assay", "format": "cell-based, multidrug-resistant E. coli (MDR E. coli)", "conditions": "4 h", "excerpt": "To further investigate bacteria viability after treatment with ACA-PA, the live/dead assay was used to confirm the antibacterial actions of ACA-PA. Dead bacteria with disrupted membrane were stained a first color, whereas live bacteria were stained with a second color fluorescence. A large amount of robust MRSA bacteria in the untreated control sample appeared a second color and in spherical shapes (FIG. 10A). […] This antibacterial activity was dependent on the concentration of PA, yet was not determined by peptide self-assembly. Nonetheless, Gram-negative MDR E. coli responded to the treatment of ACA-PA differently from Gram-positive MRSA.\nThe live/dead bacterial viability assay was conducted to further assess the bactericidal efficacy of ACA-PA using the LIVE/DEAD BacLight Bacterial Viability Kits (Kits 71007, Molecular Probes, Eugene, OR, USA). MRSA and MDR E. coli bacteria (100 μl, 10^6 CFU/mL) were incubated with 80 μM and 40 μM of peptide in 3% TSB media at 37° C. for 4 h on a 96-well plate, and the control samples of bacteria were incubated in 3% TSB media only. […] The live bacteria stained fluorescent a second color (SYTO9 nucleic acid stain), whereas the dead bacteria with disrupted membranes stained fluorescent a first color (propidium iodide, PI)."}, "[3]": {"test_system": "MDR E. coli", "assay": "Bacterial membrane disruption by TEM of ultrathin sections", "format": "cell-based, multidrug-resistant E. coli (MDR E. coli)", "conditions": "4 h", "description": "TEM was used to reveal the damage in bacterial cell envelopes caused by ACA-PA treatment. Drug-resistant bacterial strains (MRSA and MDR E. coli) were exposed to ACA-PA at concentrations below (40 μM) and above (80 μM) the CMC, and ultrathin sections of the bacterial cultures were visualized by TEM.\nThe ACA-PA at a concentration lower than CMC seemed to only influenced the outer bacteria membrane, but were inadequate to disrupt the inner bacteria membranes.\nBacterial membrane disruption was observed from the ultrathin sectioned sample using TEM. […] After treatment with 80 μM ACA nanorods, bacterial cell membranes were severely damaged with complete cytoplasm leakage. […] On the damaged membranes, blisters appeared to originate from the pores. This explains the reason for the different antibacterial activity of ACA-PA on Gram-negative bacteria compared to the concentration-dependent toxicity on Gram-positive bacteria. The cell envelope of Gram-positive has a cytoplasmic membrane surrounded by a thick peptidoglycan layer with lipoteichoic acid. The antibacterial ACA-PA could penetrate the Gram-positive bacterial membrane by charge and hydrophobicity, although the PA were in a dispersed, non-assembled form. However, such dispersed PA were not able to penetrate the outer membrane of Gram-negative bacteria. […]"}},
  "note": "Residues, ends and D or L forms follow the SMILES beside them. *: point of attachment. Palmitoyl = CCCCCCCCCCCCCCCC(=O)*",
  "data": [
    {"smiles": "CCCCCCCCCCCCCCCC(=O)N[C@H](C(=O)N[C@H](C(=O)N[C@H](C(=O)N[C@H](C(=O)N[C@@H](CCCCN)C(=O)N[C@@H](CCCCN)C(=O)N[C@@H](CCCCN)C(=O)N[C@@H](CCCCN)C(=O)NCC(=O)N[C@@H](C)C(=O)N[C@@H](CCCCN)C(=O)N[C@@H](CCCCN)C(=O)N[C@@H](C)C(=O)N[C@@H](CCCNC(=N)N)C(=O)N[C@@H](C)C(=O)N[C@@H](C)C(=O)N[C@@H](CCCCN)C(=O)N[C@@H](CCCCN)C(=O)N[C@@H](C)C(=O)N[C@@H](CCCNC(=N)N)C(=O)N[C@@H](C)C(=O)O)C(C)C)C(C)C)C(C)C)C(C)C", "note": "[ACA-PA, C16-V4K4G(AKKARA)2 (SEQ ID NO: 7)] (Palmitoyl-VVVVKKKKGAKKARAAKKARA-OH; N-terminus and C-terminus assumed)", "values": [
      {"measurement": "decrease in bacteria density", "setting": "[1]; MDR E. coli (Gram-negative), 60 to 100 μM", "value": "10,000 fold"},
      {"measurement": "number of viable bacteria colonies after mixing with heparin", "setting": "[1]; MDR E. coli, 80 μM ACA-PA, 1:1, 1:2, 1:3 ACA-PA to heparin weight ratios", "value": "positively proportional to the amount of heparin added"},
      {"measurement": "toxicity towards bacteria after mixing with heparin", "setting": "[1]; MDR E. coli, 80 μM ACA-PA, 1:3 ACA-PA to heparin weight ratio, 4 h", "value": "no toxicity towards bacteria"},
      {"measurement": "reduction in bacteria density", "setting": "[1]; MDR E. coli, concentrations lower than CMC, 4 h", "value": "no significant reduction in Gram-negative bacteria density"},
      {"measurement": "reduction of colony forming units", "setting": "[1]; MDR E. coli, over 60 μM, 4 h, vs untreated control", "value": "five"},
      {"measurement": "bacterial viability (live/dead staining)", "setting": "[2]; 40 μM", "value": "unable to induce considerable cell mortality"},
      {"measurement": "bacterial viability (live/dead staining)", "setting": "[2]; 80 μM", "value": "enhanced the number of dead bacteria drastically"},
      {"measurement": "bacterial membrane disruption (TEM)", "setting": "[3]; 40 μM", "value": "blisters only on the outer cell walls"},
      {"measurement": "bacterial membrane disruption (TEM)", "setting": "[3]; 80 μM", "value": "disrupted bacteria envelopes with loosened and disconnected membranous structures"}
    ]}
  ]
}
